Test results as given in EP0116431B1, “Aromatase inhibiting pyrimidine derivatives” (ELI LILLY AND COMPANY, priority 1983, dated 1984).
Where two headings read alike, the source gives them in different places.

Experiments:
[1] = system: DMBA-induced Mammary Tumor; assay: DMBA-induced mammary tumor inhibition; format: in vivo, Sprague-Dawley rats; details: for Mean Tumor Area (mm^2) Start: start of test
Protocol: Mammary tumors were produced in female Sprague-Dawley rats which were 50-60 days old by the gavage administration of 20 mg of 7,12-dimethylbenz[a]anthracene (DMBA). About six weeks after DMBA administration, the mammary glands were palpated at weekly intervals for the appearance of tumors. Whenever one or more tumors appeared and were measurable in an animal, that animal was selected for experimentation. […] Each control and test group contained 8 animals. The test compound was administered either mixed into the food at a concentration of 300 ppm (corresponding to an appropriate daily dose of 30 mg/kg) or the compounds were dissolved or suspended in corn oil and administered once daily by gavage. Every experiment included a group of control rats having tumors and were either given food without the compound admixed or corn oil vehicle by gavage, depending on how the test compound was administered. […] The area of each tumor was calculated by multiplying the shortest and longest diameters of the tumor. The treatment and measurement of animals continued for 4-8 weeks at which time the final areas of the tumors were determined. For each compound (and control) at each dose level, the change in the mean tumor area was determined. The mean change was analyzed for its significance using Dunnett's t-test.

synthesis of estrogens = details: seven days, testosterone propionate-treated immature female rats
[2] = 300 ppm in the diet, 5 weeks test
[3] = 300 ppm in feed (approximately 30 mg/kg/day)

Row | SMILES | Mean Tumor Area (mm^2) Finish ([1]; 300 ppm in the diet, 5 weeks) | Mean Tumor Area (mm^2) Start [1, 2] [mm^2] | Mean Uterine Weight (mg) (synthesis of estrogens; 30 ppm in feed (approximately 3 mg/kg/day)) | Mean Uterine Weight (mg) (synthesis of estrogens; [3]) | Mean Tumor Area (mm^2) Finish ([1]; 1 mg/kg daily by gavage, 5 weeks) | Mean Tumor Area (mm^2) Start ([1]; 1 mg/kg daily by gavage, 5 weeks test) [mm^2] | Mean Tumor Area (mm^2) Finish ([1]; 5 mg/kg daily by gavage, 4 weeks) [mm^2] | Mean Tumor Area (mm^2) Start ([1]; 5 mg/kg daily by gavage, 4 weeks test) [mm^2] | Mean Tumor Area (mm^2) Finish ([1]; 7.5 mg/kg daily by gavage, 5 weeks) | Mean Tumor Area (mm^2) Start ([1]; 7.5 mg/kg daily by gavage, 5 weeks test) [mm^2] | Mean Tumor Area (mm^2) Finish ([1]; 15 mg/kg daily by gavage, 5 weeks) | Mean Tumor Area (mm^2) Start ([1]; 15 mg/kg daily by gavage, 5 weeks test) [mm^2] | Mean Tumor Area (mm^2) Finish ([1]; 30 mg/kg daily by gavage, 4 weeks) [mm^2] | Mean Tumor Area (mm^2) Start ([1]; 30 mg/kg daily by gavage, 4 weeks test) [mm^2] | Mean Tumor Area (mm^2) Finish ([1]; 30 mg/kg daily by gavage, 5 weeks) | Mean Tumor Area (mm^2) Start ([1]; 30 mg/kg daily by gavage, 5 weeks test) [mm^2] | Mean Tumor Area (mm^2) Finish ([1]; 300 ppm in the diet, 8 weeks) | Mean Tumor Area (mm^2) Start ([1]; 300 ppm in the diet, 8 weeks test) [mm^2]
1 | Clc1ccc(C(c2ccc(Cl)cc2)c2cncnc2)cc1 [compound 27, 5-bis(4-chlorophenyl)methylpyrimidine] | 154 mm^2 | 78.6 | 92.25^+ mg | 80.20^+ mg |  |  |  |  |  |  |  |  |  |  |  |  |  | 
2 | OC(c1ccc(Cl)cc1)(c1ccc(Cl)cc1)c1cncnc1 [compound 29, α,α-bis(4-chlorophenyl)-5-pyrimidinemethanol] | 10.0^+ mm^2 | 60.7 |  | 75.00^+ mg | 210^+ mm^2 | 66 | 123.5 | 56.3 | 159^+ mm^2 | 63 | 9^+ mm^2 | 50 | 34.3 | 71.5 | 146^+ mm^2 | 69 | 355^+ mm^2 | 160.4
